According to PMC6979384, “Characterization of the plant homeodomain (PHD) reader family for their histone tail interactions” (Epigenetics & Chromatin, 2020):
“Also recorded” adds a separate entry of the source.

Key:
Experiment in all cases: Histone peptide microarray
Format in all cases: binding, human
PHF13 = details: GST-tagged PHF13; sheet Array Heatmap; each array performed twice, total n = 4
Outline: (§1)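 A peptide microarray holding 293 synthetic histone peptides with individual or combinatorial modifications was probed with each GST-PHD protein at 0.5 μM. Values represent mean intensity (±SD) from four replicates.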

MLL5 = details: for Array Heatmap signal (histone peptide microarray): GST-tagged MLL5, sheet Array Heatmap, each array performed twice, total n = 4
Outline: as §1

KDM7A = details: GST-tagged KDM7A; sheet Array Heatmap; each array performed twice, total n = 4
Outline: as §1

CHD4 (PPCC) = details: for Array Heatmap signal (histone peptide microarray): GST-tagged CHD4 (PPCC = Dual PHD + Dual Chromodomain), sheet Array Heatmap, each array performed twice, total n = 4
Outline: as §1

PHF2 = details: GST-tagged PHF2; sheet Array Heatmap; each array performed twice, total n = 4
Outline: as §1

ING5 = details: GST-tagged ING5; sheet Array Heatmap; each array performed twice, total n = 4
Outline: as §1

ING2 = details: GST-tagged ING2; sheet Array Heatmap; each array performed twice, total n = 4
Outline: as §1

ING3 = details: GST-tagged ING3; sheet Array Heatmap; each array performed twice, total n = 4
Outline: as §1

TRIM66 (PB) = details: GST-tagged TRIM66 (PB = PHD + Bromodomain); sheet Array Heatmap; each array performed twice, total n = 4
Outline: as §1

KDM5B (3) = details: for Array Heatmap signal (histone peptide microarray): GST-tagged KDM5B (3), sheet Array Heatmap, each array performed twice, total n = 4
Outline: as §1

KDM5B (1) = details: GST-tagged KDM5B (1); sheet Array Heatmap; each array performed twice, total n = 4
Outline: as §1

ING1 = details: GST-tagged ING1; sheet Array Heatmap; each array performed twice, total n = 4
Outline: as §1

KDM5A (1) = details: GST-tagged KDM5A (1); sheet Array Heatmap; each array performed twice, total n = 4
Outline: as §1

CHD5 (PCC) = details: GST-tagged CHD5 (PCC = PHD + Dual Chromodomain); sheet Array Heatmap; each array performed twice, total n = 4
Outline: as §1

MORC3 (CW) = details: GST-tagged MORC3 (CW = CW-type Zn-finger); sheet Array Heatmap; each array performed twice, total n = 4
Outline: as §1

KDM4C (TTP) = details: GST-tagged KDM4C (TTP = Tandem Tudor domain + PHD); sheet Array Heatmap; each array performed twice, total n = 4
Outline: as §1

BAZ2B = details: GST-tagged BAZ2B; sheet Array Heatmap; each array performed twice, total n = 4
Outline: as §1

PHF8 = details: GST-tagged PHF8; sheet Array Heatmap; each array performed twice, total n = 4
Outline: as §1

RAG2 = details: GST-tagged RAG2; sheet Array Heatmap; each array performed twice, total n = 4
Outline: as §1

PHRF1 (RP) = details: for Array Heatmap signal (histone peptide microarray): GST-tagged PHRF1 (RP), sheet Array Heatmap, each array performed twice, total n = 4
Outline: as §1

DPF2 (PPC2W2) = details: GST-tagged DPF2 (PPC2W2 = Dual PHD + C2W2-type Zn-finger); sheet Array Heatmap; each array performed twice, total n = 4
Outline: as §1

CHD5 (PPCC) = details: GST-tagged CHD5 (PPCC = Dual PHD + Dual Chromodomain); sheet Array Heatmap; each array performed twice, total n = 4
Outline: as §1

PHF23 = details: GST-tagged PHF23; sheet Array Heatmap; each array performed twice, total n = 4
Outline: as §1

ING4 = details: GST-tagged ING4; sheet Array Heatmap; each array performed twice, total n = 4
Outline: as §1

PHF21A = details: GST-tagged PHF21A; sheet Array Heatmap; each array performed twice, total n = 4
Outline: as §1

SP140L = details: GST-tagged SP140L; sheet Array Heatmap; each array performed twice, total n = 4
Outline: as §1

[1] = peptide microarray, reader 0.5 μM, n = 4

Substance	Array Heatmap signal (histone peptide microarray) (PHF13)	Array Heatmap signal (histone peptide microarray) (MLL5)	Array Heatmap signal (histone peptide microarray) (KDM7A)	Array Heatmap signal (histone peptide microarray) (CHD4 (PPCC))	Array Heatmap signal (histone peptide microarray) (PHF2)	Array Heatmap signal (histone peptide microarray) (ING5)	Array Heatmap signal (histone peptide microarray) (ING2)	Array Heatmap signal (histone peptide microarray) (ING3)	Array Heatmap signal (histone peptide microarray) (TRIM66 (PB))	Array Heatmap signal (histone peptide microarray) (KDM5B (3))	Array Heatmap signal (histone peptide microarray) (KDM5B (1))	Array Heatmap signal (histone peptide microarray) (ING1)	Array Heatmap signal (histone peptide microarray) (KDM5A (1))	Array Heatmap signal (histone peptide microarray) (CHD5 (PCC))	Array Heatmap signal (histone peptide microarray) (MORC3 (CW))	Array Heatmap signal (histone peptide microarray) (KDM4C (TTP))	Array Heatmap signal (histone peptide microarray) (BAZ2B)	Array Heatmap signal (histone peptide microarray) (PHF8)	Array Heatmap signal (histone peptide microarray) (RAG2)	Array Heatmap signal (histone peptide microarray) (PHRF1 (RP))	other results
H3 (1-20): unmodified H3 N-terminal peptide (1–20)	0.5761	0.5452	0.3004	0.5925	0.5688	0.3305	0.5908	0.4575	0.7114	0.5464	0.6198	0.542	0.4331	0.7444	0.4267	0.431	0.438	0.3331	0.2786	0.67	relative binding (CHD4 (PPCC); [1]): no difference in binding; binding preference (PHRF1 (RP); peptide microarray, reader 0.5 μM, n = 4, listed as H3K4me0): strong preference for H3K4me0; also recorded: specifically bound H3K4me0 over K4me; Array Heatmap signal (histone peptide microarray) (DPF2 (PPC2W2)): 0.6767; Array Heatmap signal (histone peptide microarray) (CHD5 (PPCC)): 0.5462; Array Heatmap signal (histone peptide microarray) (PHF23): 0.5836; Array Heatmap signal (histone peptide microarray) (ING4): 0.425; Array Heatmap signal (histone peptide microarray) (PHF21A): 0.4449; Array Heatmap signal (histone peptide microarray) (SP140L): 0.461
H3K4me1: H3 1-20 [Peptide H3K4me1]	0.6545	0.5428	0.37	0.5818	0.5242	0.3865	0.606	0.5265	0.6245	0.6104	0.6949	0.551	0.4924	0.8603	0.5834	0.5341	0.4995	0.3997	0.3065	0.6701	Array Heatmap signal (histone peptide microarray) (DPF2 (PPC2W2)): 0.7192; Array Heatmap signal (histone peptide microarray) (CHD5 (PPCC)): 0.5953; Array Heatmap signal (histone peptide microarray) (PHF23): 0.579; Array Heatmap signal (histone peptide microarray) (ING4): 0.4885; Array Heatmap signal (histone peptide microarray) (PHF21A): 0.4917; Array Heatmap signal (histone peptide microarray) (SP140L): 0.3684
H3K4me2: H3 1-20 [Peptide H3K4me2]	0.6844	0.5972	0.5271	0.5852	0.5474	0.3985	0.6539	0.5315	0.6781	0.6323	0.6566	0.601	0.5028	0.8359	0.6297	0.5984	0.5231	0.5074	0.3888	0.5228	Array Heatmap signal (histone peptide microarray) (DPF2 (PPC2W2)): 0.7084; Array Heatmap signal (histone peptide microarray) (CHD5 (PPCC)): 0.6021; Array Heatmap signal (histone peptide microarray) (PHF23): 0.6135; Array Heatmap signal (histone peptide microarray) (ING4): 0.5223; Array Heatmap signal (histone peptide microarray) (PHF21A): 0.4967; Array Heatmap signal (histone peptide microarray) (SP140L): 0.3615
H3K4me3: H3 1-20 [Peptide H3K4me3]	0.5859	0.668	0.3234	0.5281	0.8051	0.3493	0.6884	0.4876	0.622	0.4784	0.5666	0.6386	0.4187	0.6826	0.5878	0.4579	0.4249	0.4526	0.3757	0.4656	binding preference (MLL5; [1]): strong preference for H3K4me3 over the un-, mono-, or di-methylated H3K4 peptides; also recorded: specific reader for H3K4me3; binding preference (KDM5B (3); peptide microarray, reader 0.5 μM, n = 4, comparison between K9ac + K18ac peptides): showed such a preference on peptide microarrays; Array Heatmap signal (histone peptide microarray) (DPF2 (PPC2W2)): 0.5958; Array Heatmap signal (histone peptide microarray) (CHD5 (PPCC)): 0.5167; Array Heatmap signal (histone peptide microarray) (PHF23): 0.678; Array Heatmap signal (histone peptide microarray) (ING4): 0.4513; Array Heatmap signal (histone peptide microarray) (PHF21A): 0.4238; Array Heatmap signal (histone peptide microarray) (SP140L): 0.3018
